# How the values were obtained:
# [1] = Hydrolysis reaction: pH and turbidity of diluted ZLC solutions before and after aging; format: physicochemical; conditions: for pH after aging / turbidity after aging (NTU): 37° C. oven over 5 hours
# Description: A 185 mg/ml ZLC solution is prepared and diluted several-fold and aged in a 37° C. oven over 5 hours for turbidity studies. […] Turbidity of the solutions is measured using a nephelometer, results being given in nephelometric turbidity units (NTU).
# [2] = target: Bovine Serum Albumin (BSA) (Bos taurus, UniProt P02769); experiment: Flocculation of ZLC in the presence of protein (BSA); format: physicochemical; conditions: ZLC 15 mg/ml, 5 hours, 37° C.
# Sequence of Bovine Serum Albumin (BSA) (P02769 25-607): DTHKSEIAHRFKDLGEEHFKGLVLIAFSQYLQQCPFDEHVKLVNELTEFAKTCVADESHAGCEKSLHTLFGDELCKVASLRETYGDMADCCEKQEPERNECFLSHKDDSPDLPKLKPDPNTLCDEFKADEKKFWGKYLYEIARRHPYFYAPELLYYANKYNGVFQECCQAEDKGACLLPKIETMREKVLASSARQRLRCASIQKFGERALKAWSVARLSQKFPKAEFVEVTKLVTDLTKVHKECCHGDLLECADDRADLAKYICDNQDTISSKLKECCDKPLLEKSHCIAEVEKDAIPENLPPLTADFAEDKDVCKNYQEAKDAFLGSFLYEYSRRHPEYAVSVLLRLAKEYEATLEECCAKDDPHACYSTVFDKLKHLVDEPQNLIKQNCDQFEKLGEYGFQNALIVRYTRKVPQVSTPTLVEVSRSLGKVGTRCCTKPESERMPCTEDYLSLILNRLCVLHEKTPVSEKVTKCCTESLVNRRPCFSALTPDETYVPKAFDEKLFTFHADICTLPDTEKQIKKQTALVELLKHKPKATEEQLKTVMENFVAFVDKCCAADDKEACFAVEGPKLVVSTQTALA
# Description: Turbidity and pH of solutions are measured 5 hours after the mixtures were placed in a 37° C. oven, and the results are shown in Table 3: […]
# bacterial culture = experiment: Zone of inhibition test; format: cell-based; conditions: 20 μl on filter paper discs, TSA plates, 20 hours at 37° C.
# Description: A zone of inhibition test is conducted on several materials: zinc oxide, lysine hydrochloride, and ZLC. The method involves making a lawn of freshly prepared bacterial culture on TSA (trypticase soy agar) plates. Sterile filter paper discs are seeded with 20 μl of test sample (supernatant or mixture). Sample-coated filter paper discs are air dried and applied onto the bacterial lawn on TSA plates. Plates are incubated for 20 hours at 37° C.
# [3] = sample 3: 1% BSA, pH adjusted to 5.13
substance,measurement,setting,value
[Zn(C6H14N2O2)2Cl]^+Cl^− [ZLC],initial pH,[1]; 5.78 mg/ml,8.0
same,initial turbidity (NTU),[1]; 5.78 mg/ml,40.1 NTU
same,pH after aging,[1]; 5.78 mg/ml,8.0
same,turbidity after aging (NTU),[1]; 5.78 mg/ml,>1000 NTU
same,initial pH,[1]; 11.56 mg/ml,7.8
same,initial turbidity (NTU),[1]; 11.56 mg/ml,14.8 NTU
same,pH after aging,[1]; 11.56 mg/ml,7.8
same,turbidity after aging (NTU),[1]; 11.56 mg/ml,>1000 NTU
same,initial pH,[1]; 23.125 mg/ml,7.7
same,initial turbidity (NTU),[1]; 23.125 mg/ml,0.70 NTU
same,pH after aging,[1]; 23.125 mg/ml,7.7
same,turbidity after aging (NTU),[1]; 23.125 mg/ml,247.4 NTU
same,initial pH,[1]; 46.25 mg/ml,7.4
same,initial turbidity (NTU),[1]; 46.25 mg/ml,1.48 NTU
same,pH after aging,[1]; 46.25 mg/ml,7.4
same,turbidity after aging (NTU),[1]; 46.25 mg/ml,2.81 NTU
same,initial pH,[1]; 92.5 mg/ml,7.0
same,initial turbidity (NTU),[1]; 92.5 mg/ml,2.78 NTU
same,pH after aging,[1]; 92.5 mg/ml,7.0
same,turbidity after aging (NTU),[1]; 92.5 mg/ml,2.60 NTU
same,initial pH,[1]; 185 mg/ml,6.8
same,initial turbidity (NTU),[1]; 185 mg/ml,4.75 NTU
same,pH after aging,[1]; 185 mg/ml,6.8
same,turbidity after aging (NTU),[1]; 185 mg/ml,4.08 NTU
same,behaviour of the complex upon dilution,"[1]; 8×, 16× and 32× diluted solutions, precipitates identified by PXRD","disassociates upon dilution, with consequent precipitation of zinc oxide"
same,Turbidity(NTU),"[2]; sample 1: DI water, 0% BSA",357 NTU
same,pH,"[2]; sample 1: DI water, 0% BSA",7.98
same,Turbidity(NTU),"[2]; sample 2: 1% BSA, pH 7.17",>1000 NTU
same,pH,"[2]; sample 2: 1% BSA, pH 7.17",8.16
same,Turbidity(NTU),[2]; [3],>1000 NTU
same,pH,[2]; [3],7.97
same,antibacterial activity (zone of inhibition),bacterial culture,better antibacterial activity than zinc oxide alone or lysine hydrochloride alone
